PubChem BioAssay AID2127 (Sanford-Burnham Center for Chemical Genomics, 2009)
Active and inactive are the calls of the source.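 The calls were made as follows: active = half-maximal inhibitory concentration below a set limit; inactive = the rest.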

Target: E3 ubiquitin-protein ligase SIAH1 (Homo sapiens) (UniProt Q8IUQ4)
Assay: displacement of labeled plectin from Siah-1 – biochemical, fluorescence polarization, fluorescein-plectin, artefact control for Siah-1 antagonist project, dose response (AID 2127)
Conditions: Siah-1/fluorescein-plectin binding

SMILES | IC50
C=CCc1cccc2cc(C(=O)Nc3ccc(CC(=O)O)cc3)c(=O)oc12 | > 200 µM (inactive)
O=C(CCn1ccc2ccccc21)NC1CCCc2ccccc21 (stereo not given) | > 200 µM (inactive)
CC1CCN(S(=O)(=O)c2ccc3c(c2)c(=O)c(C(=O)NCc2ccccc2Cl)cn3C)CC1 | > 200 µM (inactive)
C[N+]1(CCNC(=O)/C=N/O)CCCCC1 | > 200 µM (inactive)
O=C(Nc1ccc(S(=O)(=O)N2CCOCC2)cc1)c1ccc(=O)[nH]c1 | > 200 µM (inactive)
O=S(=O)(Nc1nc2ccccc2nc1Nc1ccc(N2CCOCC2)cc1)c1cc(Cl)ccc1Cl | > 200 µM (inactive)
COC(=O)c1cc(NC(=O)c2ccccc2)c(=O)oc1/C=C/Nc1ccc(Oc2ccccc2)cc1 | > 200 µM (inactive)
Cc1ccc2c(c1)N(CC(=O)NCCc1ccc(Cl)cc1)C(=O)c1cccnc1O2 | > 200 µM (inactive)
Cc1cc(C)nc(N=Nc2c(O)n(Cc3ccc(Cl)cc3)c3ccccc23)n1 | > 200 µM (inactive)
Cc1ccc(C(=O)NC2CC3CCCC(C2)N3C(=O)NC2CCCCC2)cc1 (stereo not given) | > 200 µM (inactive)
Cc1cc(C)n2ncc(C(=O)Nc3ccc4c(c3)OCO4)c2n1 | > 200 µM (inactive)
N#Cc1c(NC(=O)c2ccc(Br)o2)n(-c2ccccc2)c2nc3ccccc3nc12 | > 200 µM (inactive)
O=C(O)c1ccc(/C=N/NC(=O)c2ccc(CN3c4cccc5cccc(c45)S3(=O)=O)cc2)cc1 | > 200 µM (inactive)
Cc1cc(C)c(C#N)c(Nc2ccccc2C)n1 | > 200 µM (inactive)
NS(=O)(=O)c1ccc(NS(=O)(=O)c2ccc(NC(=O)c3ccc(-c4ccccc4)cc3)cc2)cc1 | > 200 µM (inactive)
Oc1c(Br)cc(Br)cc1CNc1ccc(F)cc1 | > 200 µM (inactive)
COC(=O)c1ccc2c(c1)C(C)(C)C(/C=C/c1ccccc1O)=[N+]2C | > 200 µM (inactive)
CCN(CC)CCOC(=O)c1ccc(N/C=C(/C#N)c2nc(-c3ccc(OC)c(OC)c3)cs2)cc1 | > 200 µM (inactive)
CSc1ccccc1C(=O)NC(C)c1ccc(-n2ccnc2)cc1 (stereo not given) | > 200 µM (inactive)
Oc1ccc(N=Cc2sc3ccccc3c2Cl)cc1 | > 200 µM (inactive)
O=C(O)c1cc(O)c2c(c1)C(=O)c1cccc(O)c1C2=O | inactive
O=C(O)CCCNc1cc(N2CCN(C(=O)c3ccco3)CC2)c2noc3c2c1C(=O)c1ccccc1-3 | 10.9 µM
NS(=O)(=O)c1ccc(NC(=O)c2cccc(N3C(=O)c4ccccc4C3=O)c2)cc1 | > 200 µM (inactive)
Cc1ccc(S(=O)(=O)N2CCC(=O)N(C(COCc3cccc(C)c3)Cc3ccccc3)CC2)cc1 (stereo not given) | > 200 µM (inactive)
COc1cccc(CCC(=O)N(C)C2CCCN(Cc3ccccc3F)C2)c1 (stereo not given) | > 200 µM (inactive)
O=C(O)c1cc(Cl)c(Cl)cc1C(=O)Nc1cccc2cccnc12 | > 200 µM (inactive)
CCCCn1c(NC(=O)c2ccc(Br)o2)c(C(=O)OCC)c2nc3ccccc3nc21 | > 200 µM (inactive)
CCNc1ccc(C(=O)O)cc1N | inactive

SMILES | IC50
Cc1ccccc1-c1nc2c3ccccc3nc(=S)n2[nH]1 | > 200 µM (inactive)
O=C(O)CCN1C(=O)/C(=C/c2cn(-c3ccccc3)nc2-c2cccs2)SC1=S | > 200 µM (inactive)
COc1cc(NS(=O)(=O)c2ccc(NC(=S)NC(=O)/C=C/c3ccc(F)cc3)cc2)ncn1 | > 200 µM (inactive)
Cc1cc2cc(CNC(=O)c3ccc(S(=O)(=O)N4CCCCC4)cc3)ccc2n1C | inactive
CCOc1cc(/C=C(\C#N)C(=O)Nc2ccccc2C(=O)O)ccc1OC(=O)c1ccc(C)cc1 | > 200 µM (inactive)
O=c1[nH]c(-c2ccc(F)cc2)nc2c1sc(=S)n2-c1ccccc1 | > 200 µM (inactive)
O=c1ccc2c(-c3ccccc3)c3ccc(O)cc3oc-2c1 | > 200 µM (inactive)
O=S(=O)(Nc1cc2nc3ccccc3nc2n1Cc1ccccc1)c1ccc(Cl)cc1 | > 200 µM (inactive)
O=C(O)CCCCN1C(=O)/C(=C\c2ccc(OCc3ccccc3)c(OCc3ccccc3)c2)SC1=S | > 200 µM (inactive)
COC(=O)c1c(C(=O)OC)c2cccc3cc(-c4ccccc4)c4ccc1c4n32 | inactive
CCCCNc1nnc(Cc2ccc(Cl)cc2)c(=O)[nH]1 | > 200 µM (inactive)
COc1ccc(CNC(=S)Nc2cc(OC)ccc2OC)cc1 | > 200 µM (inactive)
O=C(N/N=C/c1ccc(OC(=O)c2cccs2)cc1)c1cccc(F)c1 | > 200 µM (inactive)
CCOC(=O)C1(C)C=C(Nc2ccc(O)cc2)C(=O)N1c1ccc(O)cc1 (stereo not given) | > 200 µM (inactive)
COc1ccc(C(C(=O)NCc2ccccc2)N(Cc2ccco2)C(=O)c2cnccn2)cc1 (stereo not given) | > 200 µM (inactive)
CCc1nnc(NS(=O)(=O)c2ccc(NC(=S)NC(=O)/C=C/c3ccc(C(C)C)cc3)cc2)s1 | > 200 µM (inactive)
COCCn1nnnc1C(c1cc2ccc(OC)cc2[nH]c1=O)N1CCc2ccccc2C1 (stereo not given) | > 200 µM (inactive)
CCN(CC)c1ccc(C=N/C(C#N)=C(\N)C#N)cc1 | > 200 µM (inactive)
Cc1ccn2c(C(=O)CSc3ccc(Cl)cc3Cl)c(C)nc2c1 | > 200 µM (inactive)
CN1/C(=C\C=C\C2=[N+](C)c3ccc4ccccc4c3C2(C)C)C(C)(C)c2ccccc21 | > 200 µM (inactive)
CS(=O)(=O)N1CCN(c2ccc([N+](=O)[O-])c(SCc3ccco3)c2)CC1 | > 200 µM (inactive)
CC1=C(C#N)c2nc(N)c(C#N)c(C)c2/C1=C\c1ccc(-c2ccccc2C(=O)O)o1 | > 200 µM (inactive)
CC(NC(=O)Nc1ccc(O)cc1)(C(F)(F)F)C(F)(F)F | > 200 µM (inactive)
O=C(Nc1nc(-c2cc3ccccc3oc2=O)cs1)c1ccco1 | > 200 µM (inactive)
Cc1ccc(CNc2ccc(O)cc2)cc1 | > 200 µM (inactive)
O=C(/C=C/c1ccco1)OCc1nnc(-c2ccccc2)o1 | > 200 µM (inactive)
COC(=O)C1C=C2c3cccc4[nH]cc(c34)CC2N(C)C1 (stereo not given) | 6.23 µM
